Source: ChEMBL document CHEMBL1152586, “Neuraminidase inhibitory activities of flavonols isolated from Rhodiola rosea roots and their in vitro anti-influenza viral activities” (Bioorg Med Chem, 2009)
pEC50, pIC50, pKi: −log10 of the molar value. The source made the active and inactive calls. No cut-off for these calls is given here.

Assays:
Neuraminidase = Neuraminidase (Influenza A virus, UniProt B4URF0); assay: Noncompetitive inhibition of recombinant influenza A virus rvH1N1 A/Bervig_Mission/1/18 neuraminidase
[1] = Selectivity index, ratio of CC50 for MDCK cells to EC50 for influenza virus H1N1 A/PR/8/34; format: toxicity, cell-based; settings: dog, read-out: Ratio CC50/EC50
Influenza A virus [2] = assay: Antiviral activity against influenza A virus H9N2 A/Chicken/Korea/MS96/96 infected in MDCK cells assessed as reduction in virus-induced cytopathic effect; format: functional, organism-based; settings: A/Chicken/Korea/MS96/96, MDCK
Influenza A virus [3] = assay: Antiviral activity against influenza A virus H1N1 A/PR/8/34 infected in MDCK cells assessed as reduction in virus-induced cytopathic effect; format: functional, organism-based; settings: A/Puerto Rico/8/1934(H1N1)
[4] = Cytotoxicity against MDCK cells after 48 hrs by MTT assay; format: cell-based, Canis lupus familiaris; settings: dog
[5] = Selectivity index, ratio of CC50 for MDCK cells to EC50 for influenza virus H9N2 A/Chicken/Korea/MS96/96; format: toxicity, cell-based; settings: dog, read-out: Ratio CC50/EC50
Sialidase = target: T1, Sialidase (Clostridium perfringens, UniProt P10481); assay: Inhibition of Clostridium perfringens neuraminidase
T1 sequence (P10481 whole entry): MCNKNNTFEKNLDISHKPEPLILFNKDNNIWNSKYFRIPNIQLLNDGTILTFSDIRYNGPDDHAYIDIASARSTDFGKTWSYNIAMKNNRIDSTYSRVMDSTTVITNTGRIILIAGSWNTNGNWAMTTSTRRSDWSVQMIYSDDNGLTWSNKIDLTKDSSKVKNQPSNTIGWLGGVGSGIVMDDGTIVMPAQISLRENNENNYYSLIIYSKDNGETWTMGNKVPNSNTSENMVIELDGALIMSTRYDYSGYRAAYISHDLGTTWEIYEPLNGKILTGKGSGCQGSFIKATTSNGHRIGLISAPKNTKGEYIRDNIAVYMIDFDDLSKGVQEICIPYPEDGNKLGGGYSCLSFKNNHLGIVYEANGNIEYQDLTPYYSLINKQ

Influenza A virus [6] = assay: Antiviral activity against influenza A virus H1N1 A/PR/8/34 infected in MDCK cells assessed as reduction in fluorescence positive cells at 50 uM immunofluorescence assay; format: functional, organism-based; settings: A/Puerto Rico/8/1934(H1N1)

## O=c1cc(-c2ccc(O)cc2)oc2cc(O)cc(O)c12 [APIGENIN]
Neuraminidase
  pIC50: 4.48
  pKi: 4.43
[1]
  selectivity ratio: > 4.97
Influenza A virus [2]
  pEC50: 4.37
Influenza A virus [3]
  pEC50: 4.22
[4]
  CC50 at 48 h: > 300 µM
[5]
  selectivity ratio: > 7.03

## O=c1cc(-c2ccc(O)cc2)oc2cc(O[C@@H]3O[C@H](CO)[C@@H](O)[C@H](O)[C@H]3O)cc(O)c12 [APIGETRIN]
Neuraminidase
  pIC50: 4.33
  pKi: 4.27
Sialidase
  pIC50: 4.41

## O=c1c(O[C@@H]2O[C@H](CO)[C@@H](O)[C@H](O)[C@H]2O)c(-c2ccc(O)cc2)oc2cc(O)cc(O)c12 [ASTRAGALIN]
Neuraminidase
  pIC50: 4.42
  pKi: 4.48
[1]
  selectivity ratio: > 7.5
Sialidase
  pIC50: 4.53
Influenza A virus [2]
  pEC50: 4.21
Influenza A virus [3]
  pEC50: 4.40
[4]
  CC50 at 48 h: > 300 µM
[5]
  selectivity ratio: > 4.85

## O=c1c(O)c(-c2ccc(O)c(O)c2)oc2c(O)c(O)cc(O)c12 [GOSSYPETIN]
Neuraminidase
  pIC50: 5.59
  pKi: 5.11
[1]
  selectivity ratio: 6.58
Sialidase
  pIC50: 6.10
Influenza A virus [2]
  pEC50: 4.44
Influenza A virus [3]
  pEC50: 4.37
[4]
  CC50 at 48 h: 283 µM
[5]
  selectivity ratio: 7.8

## O=c1c(O)c(-c2ccc(O)cc2)oc2c(O)c(O)cc(O)c12 [HERBACETIN]
Neuraminidase
  pIC50: 5.05
  pKi: 4.86
[1]
  selectivity ratio: 8.39
Sialidase
  pIC50: 5.85
Influenza A virus [2]
  pEC50: 4.64
Influenza A virus [3]
  pEC50: 4.46
[4]
  CC50 at 48 h: 294 µM
[5]
  selectivity ratio: 12.8

## O=c1c(O)c(-c2ccc(O)cc2)oc2cc(O)cc(O)c12 [KAEMPFEROL]
Neuraminidase
  pIC50: 4.95
  pKi: 4.68
[1]
  selectivity ratio: > 9.93
Influenza A virus [6]
  Activity: Active
Sialidase
  pIC50: 5.10
Influenza A virus [2]
  pEC50: 4.73
Influenza A virus [3]
  pEC50: 4.52
[4]
  CC50 at 48 h: > 300 µM
[5]
  selectivity ratio: > 16.2

## O=c1c(O[C@@H]2O[C@H](CO)[C@@H](O)[C@H](O)[C@H]2O)c(-c2ccc(O)cc2)oc2c(O[C@@H]3O[C@H](CO)[C@@H](O)[C@H](O)[C@H]3O)c(O)cc(O)c12 [LINOCINAMARIN]
Neuraminidase
  pIC50: 4.35
  pKi: 4.20
[1]
  selectivity ratio: > 3.03
Sialidase
  pIC50: 4.41
Influenza A virus [2]
  pEC50: 4.00
Influenza A virus [3]
  pEC50: 4.00
[4]
  CC50 at 48 h: > 300 µM
[5]
  selectivity ratio: > 3

## O=c1cc(-c2ccc(O)c(O)c2)oc2cc(O)cc(O)c12 [LUTEOLIN]
Neuraminidase
  pIC50: 4.96
  pKi: 4.71
[1]
  selectivity ratio: 1.96
Sialidase
  pIC50: 5.37
Influenza A virus [2]
  pEC50: 3.99
Influenza A virus [3]
  pEC50: 4.08
[4]
  CC50 at 48 h: 165 µM
[5]
  selectivity ratio: 1.6

## C[C@@H]1O[C@@H](OC[C@H]2O[C@@H](Oc3c(-c4ccc(O)cc4)oc4cc(O)cc(O)c4c3=O)[C@H](O)[C@@H](O)[C@@H]2O)[C@H](O)[C@H](O)[C@H]1O [NICOTIFLOROSIDE]
Neuraminidase
  pIC50: 4.50
  pKi: 4.49
[1]
  selectivity ratio: > 7.48
Sialidase
  pIC50: 4.26
Influenza A virus [2]
  pEC50: 4.14
Influenza A virus [3]
  pEC50: 4.40
[4]
  CC50 at 48 h: > 300 µM
[5]
  selectivity ratio: > 4.12

## CCOC(=O)C1=C[C@@H](OC(CC)CC)[C@H](NC(C)=O)[C@@H](N)C1 [OSELTAMIVIR]
Influenza A virus [6]
  Activity: Active
Influenza A virus [2]
  pEC50: 5.20
Influenza A virus [3]
  pEC50: 5.08
[4]
  CC50 at 48 h: > 300 µM

## O=c1c(O)c(-c2ccc(O)c(O)c2)oc2cc(O)cc(O)c12 [QUERCETIN]
Neuraminidase
  pIC50: 5.66
  pKi: 5.42
[1]
  selectivity ratio: 5.89
Sialidase
  pIC50: 5.77
Influenza A virus [2]
  pEC50: 3.87
Influenza A virus [3]
  pEC50: 4.37
[4]
  CC50 at 48 h: 254 µM
[5]
  selectivity ratio: 1.9

## COc1cc([C@H]2Oc3cc(O)c4c(=O)c(O)c(-c5ccc(O)cc5)oc4c3O[C@@H]2CO)ccc1O [RHODIOLININ]
Neuraminidase
  pIC50: 4.99
  pKi: 4.85
[1]
  selectivity ratio: > 7.19
Sialidase
  pIC50: 5.21
Influenza A virus [2]
  pEC50: 4.53
Influenza A virus [3]
  pEC50: 4.38
[4]
  CC50 at 48 h: > 300 µM
[5]
  selectivity ratio: > 10.2

## C[C@@H]1OC(Oc2cc(O)c3c(=O)c(O)c(-c4ccc(O)cc4)oc3c2O)[C@H](O)[C@H](O)[C@H]1O (stereo partly specified) [RHODIONIN]
Neuraminidase
  pIC50: 4.49
  pKi: 4.23
[1]
  selectivity ratio: > 4.01
Sialidase
  pIC50: 4.39
Influenza A virus [2]
  pEC50: 4.30
Influenza A virus [3]
  pEC50: 4.13
[4]
  CC50 at 48 h: > 300 µM
[5]
  selectivity ratio: > 6.05

## C[C@@H]1O[C@@H](Oc2cc(O)c3c(=O)c(O)c(-c4ccc(O)cc4)oc3c2O)[C@H](O)[C@H](O[C@@H]2O[C@H](CO)[C@@H](O)[C@H](O)[C@H]2O)[C@H]1O [RHODIOSIN]
Neuraminidase
  pIC50: 4.25
  pKi: 4.19
[1]
  selectivity ratio: 3.63
Sialidase
  pIC50: 4.24
[4]
  CC50 at 48 h: 297 µM
[5]
  selectivity ratio: 8.47

## C[C@@H]1O[C@@H](Oc2cc(O)c3c(=O)c(O)c(-c4ccc(O)cc4)oc3c2O)[C@H](O)[C@H](O[C@H]2O[C@@H](CO)[C@H](O)[C@@H](O)[C@@H]2O)[C@H]1O [RHODIOSIN]
Influenza A virus [2]
  pEC50: 4.45
Influenza A virus [3]
  pEC50: 4.09

## C[C@@H]1O[C@@H](OC[C@H]2O[C@@H](Oc3c(-c4ccc(O)c(O)c4)oc4cc(O)cc(O)c4c3=O)[C@H](O)[C@@H](O)[C@@H]2O)[C@H](O)[C@H](O)[C@H]1O [RUTIN]
Neuraminidase
  pIC50: 4.46
  pKi: 4.47
Sialidase
  pIC50: 4.51
